{
  "source": "paper PMC11364775",
  "about": "“Ion occupancy of the selectivity filter controls opening of a cytoplasmic gate in the K2P channel TALK-2” (Nature Communications, 2024)",
  "key": {"WT TALK-2 channels": {"molecular_target": "T1, WT TALK-2 channels (Homo sapiens, UniProt Q96T54)", "T1 sequence (Q96T54 1-332)": "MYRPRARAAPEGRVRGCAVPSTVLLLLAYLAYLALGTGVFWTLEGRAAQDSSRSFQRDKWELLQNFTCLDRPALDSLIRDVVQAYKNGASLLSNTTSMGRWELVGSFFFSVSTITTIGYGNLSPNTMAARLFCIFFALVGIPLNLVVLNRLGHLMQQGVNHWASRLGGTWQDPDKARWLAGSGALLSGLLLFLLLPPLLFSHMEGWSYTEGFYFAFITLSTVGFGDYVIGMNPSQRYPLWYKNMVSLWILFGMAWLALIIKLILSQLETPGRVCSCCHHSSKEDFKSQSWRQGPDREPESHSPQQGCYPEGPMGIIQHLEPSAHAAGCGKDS", "assay": "Tail current deactivation kinetics with pore blocker (inside-out patch)", "format": "cell-based", "design": "expressed in transfected cells; host or cells: Xenopus laevis oocytes (cRNA injection), excised inside-out patches", "from_the_text": "In voltage-gated K^+ (Kv) channels, the closing of the lower gate can be prevented by the binding of blockers such as tetra-pentyl-ammonium (TPenA) in the pore cavity and, thereby, causing a slowing of the deactivation kinetics which is known as the ‘foot in the door’ effect[33],[34]. To test for such a mechanism in TALK-2, we activated the channels with a voltage step to +100 mV in the presence of intracellular Rb^+ followed by a repolarization step to -80 mV (to induce tail currents) with and without the K2P channel pore blocker TPenA. […] We hypothesize, that the two gates are strongly coupled and, therefore, opening the SF gate by depolarization should also open the lower gate, which then consequently would allow blocker (like TPenA) binding within the pore cavity (Fig. 5a cartoon). Upon repolarization, however, the bound TPenA blocker obstructs closure of the lower gate and thereby, hinders the SF from closure/inactivation (gate coupling)."}, "[1]": {"molecular_target": "T2, WT TREK-2 channels (human K2P10.1) (Homo sapiens, UniProt P57789)", "T2 construct": "expressed in transfected cells; host or cells: Xenopus laevis oocytes (cRNA injection), excised inside-out patches", "T2 sequence (P57789 1-538)": "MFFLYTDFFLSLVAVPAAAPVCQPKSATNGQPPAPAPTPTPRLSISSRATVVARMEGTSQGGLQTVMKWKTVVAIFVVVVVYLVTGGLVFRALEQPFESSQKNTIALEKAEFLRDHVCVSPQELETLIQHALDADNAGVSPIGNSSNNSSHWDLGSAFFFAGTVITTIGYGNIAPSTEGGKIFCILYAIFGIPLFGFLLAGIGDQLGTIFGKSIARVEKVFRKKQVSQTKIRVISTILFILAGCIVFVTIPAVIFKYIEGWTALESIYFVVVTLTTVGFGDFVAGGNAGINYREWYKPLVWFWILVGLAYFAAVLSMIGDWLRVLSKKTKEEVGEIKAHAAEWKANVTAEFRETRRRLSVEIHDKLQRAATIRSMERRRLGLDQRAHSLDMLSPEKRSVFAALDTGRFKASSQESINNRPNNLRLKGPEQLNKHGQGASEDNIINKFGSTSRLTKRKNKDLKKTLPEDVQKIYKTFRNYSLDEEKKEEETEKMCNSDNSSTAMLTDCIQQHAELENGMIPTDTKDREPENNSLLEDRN", "assay": "Tail current deactivation kinetics with pore blocker (inside-out patch)", "format": "cell-based"}},
  "note": "Entries after “also recorded” stand apart in the source; their conditions may differ.",
  "data": [
    {"smiles": "CCCCC[N+](CCCCC)(CCCCC)CCCCC", "note": "[TPenA, Tetra-pentyl-ammonium chloride]", "values": [
      {"measurement": "effect of TPenA inhibition on tail current kinetics", "setting": "WT TALK-2 channels; 2-APB-activated TALK-2 (1.0 mM 2-APB, 1.0 mM TPenA)", "value": "no effect; also recorded: little effect"},
      {"measurement": "deactivation time constant τ of tail currents", "setting": "WT TALK-2 channels; intracellular Rb+ with 1.0 mM TPenA, step to +100 mV, repolarization to -80 mV", "value": "7.4 ± 0.4", "unit": "ms"},
      {"measurement": "TPenA block of the tail current amplitudes", "setting": "WT TALK-2 channels; intracellular Rb+, tail currents at -80 mV", "value": "~ 50%"},
      {"measurement": "slowing of the deactivation kinetics", "setting": "WT TALK-2 channels; with ~50 % TPenA block, intracellular Rb+", "value": "~ 2.5 fold"},
      {"measurement": "effect of TPenA inhibition on tail current kinetics", "setting": "[1]; TREK-2", "value": "no effect"},
      {"measurement": "deactivation time constant τ of tail currents", "setting": "[1]; intracellular Rb+ with 50 µM TPenA", "value": "11.2 ± 1.4", "unit": "ms"}
    ]}
  ]
}
